Test results taken from ChEMBL document CHEMBL4033677, “Design and synthesis of pyrazolo[3,4-d]pyrimidines: Nitric oxide releasing compounds targeting hepatocellular carcinoma” (Bioorg Med Chem, 2017).

Tests used:
Format in all cases: functional
OVCAR-5 = assay: Growth inhibition of human OVCAR5 cells assessed as cell growth at 10^-5 M incubated for 48 hrs by sulforhodamine B assay relative to control; conditions: OVCAR-5, 48 h, read-out: Activity
MCF7 = assay: Growth inhibition of human MCF7 cells assessed as cell growth at 10^-5 M incubated for 48 hrs by sulforhodamine B assay relative to control; conditions: MCF7, 48 h, read-out: Activity
HL-60(TB) = assay: Growth inhibition of human HL-60(TB) cells assessed as cell growth at 10^-5 M incubated for 48 hrs by sulforhodamine B assay relative to control; conditions: HL-60, 48 h, read-out: Activity
TK-10 = assay: Growth inhibition of human TK10 cells assessed as cell growth at 10^-5 M incubated for 48 hrs by sulforhodamine B assay relative to control; conditions: TK-10, 48 h, read-out: Activity
OVCAR-4 = assay: Growth inhibition of human OVCAR4 cells assessed as cell growth at 10^-5 M incubated for 48 hrs by sulforhodamine B assay relative to control; conditions: OVCAR-4, 48 h, read-out: Activity
MOLT-4 = assay: Growth inhibition of human MOLT4 cells assessed as cell growth at 10^-5 M incubated for 48 hrs by sulforhodamine B assay relative to control; conditions: MOLT-4, 48 h, read-out: Activity
MDA-MB-435 = assay: Growth inhibition of human MDA-MB-435 cells assessed as cell growth at 10^-5 M incubated for 48 hrs by sulforhodamine B assay relative to control; conditions: MDA-MB-435, 48 h, read-out: Activity
BT-549 = assay: Growth inhibition of human BT549 cells assessed as cell growth at 10^-5 M incubated for 48 hrs by sulforhodamine B assay relative to control; conditions: BT-549, 48 h, read-out: Activity
MDA-MB-468 = assay: Growth inhibition of human MDA-MB-468 cells assessed as cell growth at 10^-5 M incubated for 48 hrs by sulforhodamine B assay relative to control; conditions: MDA-MB-468, 48 h, read-out: Activity
DU-145 = assay: Growth inhibition of human DU145 cells assessed as cell growth at 10^-5 M incubated for 48 hrs by sulforhodamine B assay relative to control; conditions: DU-145, 48 h, read-out: Activity
UACC-257 = assay: Growth inhibition of human UACC257 cells assessed as cell growth at 10^-5 M incubated for 48 hrs by sulforhodamine B assay relative to control; conditions: UACC-257, 48 h, read-out: Activity
SK-OV-3 = assay: Growth inhibition of human SKOV3 cells assessed as cell growth at 10^-5 M incubated for 48 hrs by sulforhodamine B assay relative to control; conditions: SK-OV-3, 48 h, read-out: Activity
NCI-H23 = assay: Growth inhibition of human NCI-H23 cells assessed as cell growth at 10^-5 M incubated for 48 hrs by sulforhodamine B assay relative to control; conditions: NCI-H23, 48 h, read-out: Activity
A549 = assay: Growth inhibition of human A549/ATCC cells assessed as cell growth at 10^-5 M incubated for 48 hrs by sulforhodamine B assay relative to control; conditions: A549, 48 h, read-out: Activity
SNB-75 = assay: Growth inhibition of human SNB75 cells assessed as cell growth at 10^-5 M incubated for 48 hrs by sulforhodamine B assay relative to control; conditions: SNB-75, 48 h, read-out: Activity
M14 = assay: Growth inhibition of human M14 cells assessed as cell growth at 10^-5 M incubated for 48 hrs by sulforhodamine B assay relative to control; conditions: M14, 48 h, read-out: Activity
SK-MEL-28 = assay: Growth inhibition of human SK-MEL-28 cells assessed as cell growth at 10^-5 M incubated for 48 hrs by sulforhodamine B assay relative to control; conditions: SK-MEL-28, 48 h, read-out: Activity
UACC-62 = assay: Growth inhibition of human UACC62 cells assessed as cell growth at 10^-5 M incubated for 48 hrs by sulforhodamine B assay relative to control; conditions: UACC-62, 48 h, read-out: Activity
Hs-578T = assay: Growth inhibition of human Hs 578T cells assessed as cell growth at 10^-5 M incubated for 48 hrs by sulforhodamine B assay relative to control; conditions: read-out: Activity
NCI-H226 = assay: Growth inhibition of human NCI-H226 cells assessed as cell growth at 10^-5 M incubated for 48 hrs by sulforhodamine B assay relative to control; conditions: NCI-H226, 48 h, read-out: Activity

Work on `Cc1nn(-c2ccccc2)c2ncnc(Nc3ccc(OCCCBr)cc3)c12` yielded a growth at 10 µM (OVCAR-5) of 103%, a growth at 10 µM (MCF7) of 93.8% and a growth at 10 µM (HL-60(TB)) of 104%. It also gave a growth at 10 µM (TK-10) of 89.9%, a growth at 10 µM (OVCAR-4) of 99.6% and a growth at 10 µM (MOLT-4) of 83.7%. The growth at 10 µM (MDA-MB-435) was 100%, the growth at 10 µM (BT-549) was 97.8% and the growth at 10 µM (MDA-MB-468) was 95.5%. The growth at 10 µM (DU-145) was 108%, the growth at 10 µM (UACC-257) was 84.8% and the growth at 10 µM (SK-OV-3) was 81%. The growth at 10 µM (NCI-H23) was 99%, the growth at 10 µM (A549) was 60.9% and the growth at 10 µM (SNB-75) was 115%. For the same compound, the growth at 10 µM (M14) was 91.3%, the growth at 10 µM (SK-MEL-28) was 101% and the growth at 10 µM (UACC-62) was 89.3%. It also gave a growth at 10 µM (Hs-578T) of 111% and a growth at 10 µM (NCI-H226) of 101%.
`Cc1nc(Nc2ccc(OCCCBr)cc2)c2cnn(-c3ccccc3)c2n1` gave a growth at 10 µM (OVCAR-5) of 100%, a growth at 10 µM (MCF7) of 82.4% and a growth at 10 µM (HL-60(TB)) of 97.6%. For the same compound, the growth at 10 µM (TK-10) was 113%, the growth at 10 µM (OVCAR-4) was 94.3% and the growth at 10 µM (MOLT-4) was 93.6%. The growth at 10 µM (MDA-MB-435) was 107%, the growth at 10 µM (BT-549) was 92.9% and the growth at 10 µM (MDA-MB-468) was 98.9%. It also gave a growth at 10 µM (DU-145) of 106%, a growth at 10 µM (UACC-257) of 94.4% and a growth at 10 µM (SK-OV-3) of 82.9%. For the same compound, the growth at 10 µM (NCI-H23) was 90.7%, the growth at 10 µM (A549) was 72.2% and the growth at 10 µM (SNB-75) was 88.7%. The growth at 10 µM (M14) was 94.5%, the growth at 10 µM (SK-MEL-28) was 107% and the growth at 10 µM (UACC-62) was 86.2%. The growth at 10 µM (Hs-578T) was 82.6% and the growth at 10 µM (NCI-H226) was 81.1%.
`Cc1nc(Nc2ccc(OCCCBr)cc2)c2c(C)nn(-c3ccccc3)c2n1` showed a growth at 10 µM (OVCAR-5) of 91.4%, a growth at 10 µM (MCF7) of 90.3% and a growth at 10 µM (HL-60(TB)) of 96.2%. The growth at 10 µM (TK-10) was 94.5%, the growth at 10 µM (OVCAR-4) was 99.5% and the growth at 10 µM (MOLT-4) was 92%. The growth at 10 µM (MDA-MB-435) was 100%, the growth at 10 µM (BT-549) was 91.6% and the growth at 10 µM (MDA-MB-468) was 95%. The growth at 10 µM (DU-145) was 109%, the growth at 10 µM (UACC-257) was 93.3% and the growth at 10 µM (SK-OV-3) was 96%. The growth at 10 µM (NCI-H23) was 97.5%, the growth at 10 µM (A549) was 78.7% and the growth at 10 µM (SNB-75) was 105%. For the same compound, the growth at 10 µM (M14) was 94%, the growth at 10 µM (SK-MEL-28) was 105% and the growth at 10 µM (UACC-62) was 83%. For the same compound, the growth at 10 µM (Hs-578T) was 97.3% and the growth at 10 µM (NCI-H226) was 90%.
Work on `BrCCCOc1ccc(Nc2ncnc3c2cnn3-c2ccccc2)cc1` yielded a growth at 10 µM (OVCAR-5) of 104%, a growth at 10 µM (MCF7) of 88.8% and a growth at 10 µM (HL-60(TB)) of 95.8%. For the same compound, the growth at 10 µM (TK-10) was 128%, the growth at 10 µM (OVCAR-4) was 93.3% and the growth at 10 µM (MOLT-4) was 83.6%. It also gave a growth at 10 µM (MDA-MB-435) of 101%, a growth at 10 µM (BT-549) of 93.4% and a growth at 10 µM (MDA-MB-468) of 99.7%. It also gave a growth at 10 µM (DU-145) of 108%, a growth at 10 µM (UACC-257) of 109% and a growth at 10 µM (SK-OV-3) of 90.2%. The growth at 10 µM (NCI-H23) was 91.5%, the growth at 10 µM (A549) was 90.7% and the growth at 10 µM (SNB-75) was 93.3%. The growth at 10 µM (M14) was 100%, the growth at 10 µM (SK-MEL-28) was 107% and the growth at 10 µM (UACC-62) was 91.4%. For the same compound, the growth at 10 µM (Hs-578T) was 101% and the growth at 10 µM (NCI-H226) was 84.1%.
